Laboratory results taken from PubChem BioAssay (NCI).
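Assay format: 96-well plates, 48-hour exposure. GI50: concentration for 50% inhibition of growth. Definition used: TGI = concentration required for complete inhibition of growth.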

Assays:
Assay in all cases: NCI-60 cell line screen, 48 h
[1] = system: CCRF-CEM leukemia
[2] = system: HCT-15 colon
[3] = system: LOX IMVI melanoma
[4] = system: MALME-3M melanoma
[5] = system: MCF7 breast
[6] = system: MOLT-4 leukemia
[7] = system: NCI/ADR-RES ovarian
[8] = system: RPMI-8226 leukemia
[9] = system: SNB-75 CNS
[10] = system: UACC-62 melanoma

`Nc1c(C(=O)c2cccc(C#CCO)c2)cnn1-c1ccc(F)cc1` was tested, and the GI50 [1] was > 25 µM, the TGI [1] was > 25 µM and the GI50 [2] was > 25 µM. For the same compound, the TGI [2] was > 25 µM, the GI50 [3] was > 25 µM and the TGI [3] was > 25 µM. The GI50 [4] was > 25 µM, the TGI [4] was > 25 µM and the GI50 [5] was > 25 µM. The TGI [5] was > 25 µM, the GI50 [6] was > 25 µM and the TGI [6] was > 25 µM. The GI50 [7] was > 25 µM, the TGI [7] was > 25 µM and the GI50 [8] was > 25 µM. The TGI [8] was > 25 µM, the GI50 [9] was > 25 µM and the TGI [9] was > 25 µM. For the same compound, the GI50 [10] was > 25 µM and the TGI [10] was > 25 µM.

`Cc1ccc(-c2nc3nc(-c4ccccc4)nc(N4CCNCC4)c3o2)cc1` showed a GI50 [1] of 0.276 µM, a TGI [1] of 0.729 µM and a GI50 [2] of 0.291 µM. For the same compound, the TGI [2] was 0.834 µM, the GI50 [3] was 0.177 µM and the TGI [3] was 0.323 µM. For the same compound, the GI50 [4] was 1.81 µM, the TGI [4] was 3.59 µM and the GI50 [5] was 0.401 µM. It also gave a TGI [5] of 1.73 µM, a GI50 [6] of 0.238 µM and a TGI [6] of 0.573 µM. It also gave a GI50 [7] of 0.776 µM, a TGI [7] of 2.21 µM and a GI50 [8] of 0.232 µM. For the same compound, the TGI [8] was 0.571 µM, the GI50 [9] was 1.58 µM and the TGI [9] was 3.02 µM. For the same compound, the GI50 [10] was 1.74 µM and the TGI [10] was 3.27 µM.

`Cc1[nH]c(=O)nc(Nc2ccc(Cl)cc2)c1C(=O)N1CCN(CCO)CC1` was tested, and the GI50 [1] was > 100 µM, the TGI [1] was > 100 µM and the GI50 [2] was > 100 µM. For the same compound, the TGI [2] was > 100 µM, the GI50 [3] was > 100 µM and the TGI [3] was > 100 µM. For the same compound, the GI50 [4] was 29.9 µM, the TGI [4] was > 100 µM and the GI50 [5] was > 100 µM. The TGI [5] was > 100 µM, the GI50 [6] was > 100 µM and the TGI [6] was > 100 µM. For the same compound, the GI50 [7] was > 100 µM, the TGI [7] was > 100 µM and the GI50 [8] was > 100 µM. The TGI [8] was > 100 µM, the GI50 [9] was 21.7 µM and the TGI [9] was 52.3 µM. The GI50 [10] was 94.8 µM and the TGI [10] was > 100 µM.

Compound `C#CCNCCN1C(=O)c2ccc3c4c(ccc(c24)C1=O)C(=O)N(CCNCC#C)C3=O` has a GI50 [1] of 5.19 µM, a TGI [1] of 25 µM and a GI50 [2] of 2.95 µM. For the same compound, the TGI [2] was 10.6 µM, the GI50 [3] was 1.76 µM and the TGI [3] was 8.08 µM. The GI50 [4] was 0.903 µM, the TGI [4] was 3.14 µM and the GI50 [5] was 2.67 µM. It also gave a TGI [5] of 13.4 µM, a GI50 [6] of 3.54 µM and a TGI [6] of 16.7 µM. It also gave a GI50 [7] of 4.07 µM, a TGI [7] of 24.4 µM and a GI50 [8] of 10.6 µM. For the same compound, the TGI [8] was 43.2 µM, the GI50 [9] was 5.95 µM and the TGI [9] was 14.5 µM. It also gave a GI50 [10] of 1.71 µM and a TGI [10] of 6.68 µM.

For `COc1ccc(C2=C(c3ccc(OC)c(OC)c3)C(=O)N3CCCC3C2)cc1` (stereo not given), the GI50 [1] was 8.03 µM, the TGI [1] was > 100 µM and the GI50 [2] was 5.18 µM. For the same compound, the TGI [2] was > 100 µM, the GI50 [3] was 10.4 µM and the TGI [3] was > 52.7 µM. For the same compound, the GI50 [4] was > 71.4 µM, the TGI [4] was > 100 µM and the GI50 [5] was 31.8 µM. The TGI [5] was > 100 µM, the GI50 [6] was 2.72 µM and the TGI [6] was 19.6 µM. For the same compound, the GI50 [7] was 39.6 µM, the TGI [7] was > 100 µM and the GI50 [8] was 8.47 µM. For the same compound, the TGI [8] was 62.6 µM, the GI50 [9] was 16.6 µM and the TGI [9] was > 72.9 µM. For the same compound, the GI50 [10] was 13.2 µM and the TGI [10] was > 100 µM.

Compound `O1[As]2O[As]3O[As]1O[As](O2)O3` has a GI50 [1] of 0.161 µM, a TGI [1] of 1.11 µM and a GI50 [2] of 1.08 µM. The TGI [2] was 4.79 µM, the GI50 [3] was 0.657 µM and the TGI [3] was 2.13 µM. For the same compound, the GI50 [4] was 0.477 µM, the TGI [4] was 2.08 µM and the GI50 [5] was 0.388 µM. It also gave a TGI [5] of 2.29 µM, a GI50 [6] of 1.28 µM and a TGI [6] of 4.58 µM. The GI50 [7] was 1.43 µM, the TGI [7] was 5.11 µM and the GI50 [8] was 0.29 µM. The TGI [8] was 2.89 µM, the GI50 [9] was 0.389 µM and the TGI [9] was 3.34 µM. For the same compound, the GI50 [10] was 0.574 µM and the TGI [10] was 2.18 µM.
